Reference: patent US7192931B2, “Treatment of demyelinating diseases” (Neuren Pharmaceuticals Ltd., priority 2000, dated 2007)

How the values were obtained:
Assay type in all cases: in vivo, mouse
[1] = tested on: C57Bl/6 mice with MOG35-55 peptide-induced EAE; assay: Clinical scoring of MOG35-55-induced EAE; settings: for effectiveness of prolonged treatment on disease severity / effect on advanced EAE (clinical symptoms): advanced disease; for effectiveness of prolonged treatment on disease severity: prolonged treatment from day 60 (FIG. 1C); for effect on advanced EAE (clinical symptoms): mAb three injections from day 51, neuroprotectors 7 days from day 60 (FIG. 1B); for effect on development of EAE (clinical symptoms): early disease, treatment from day 35 (FIG. 1A)
Experimental: C57Bl/6 mice (8–10 week old) were injected subcutaneously in one flank with 300 μg of MOG35-55 peptide ([…]: SEQ ID NO:1) synthesized by Mimotapes Pty Ltd, Clayton, Australia and emulsified in CFA containing 500 μg of Mycobacterium tuberculosis H37Ra (DIFCO Laboratories, Detrit, USA). They also received 500 ng of pertussis toxin (List Biological Laboratories, CA, USA) in 200 μl PBS intravenously via the tail vein, followed 48 hours later by a second dose. A second injection of MOG peptide was given in the absence of pertussis toxin one week later in the opposite flank, as described previously (Kanwar et al., 2000b).
Two treatment protocols were employed, involving the treatment of early disease, versus advanced disease. For early disease, reagents were administered at day 35 (following MOG injection). Antibody was administered thrice on alternate days, whereas neuroprotectors were given daily for 6 days, where 50% of reagent was given ip and 50% iv. In the treatment of advanced disease, therapy as above was initiated at day 60, with either three or eight anti-MAdCAM-1 mAb injections, and neuroprotectors given daily for either 7 or 18 days.
The mice were monitored daily and scored according to the following scale: 0, no clinical signs of EAE; 1, limp tail; 2, partial hind limb paralysis; 3, complete hind limb paralysis; 4, complete hind limb and partial fore limb paralysis; 5, paralysis extending to diaphragm; 6, hind and fore limb paralysis; 7, death due to EAE. Paralysis extending to the diaphragm was denoted as difficulty in remaining upright. […] The daily mean clinical score for each group is the mean disease score of at least five mice. The body weight of animals was measured regularly throughout the experiments. The expanded disability status scale for EAE treated mice was scored using an earlier published scoring system (Villoslada et al. 2000).
The rat hybridoma MECA-367 (rat IgG2a),5 which secretes a mAb against mouse MAdCAM-1 was either provided by Dr Eugene Butcher, Stanford University, Stanford, Calif. (FIGS. 1A and B), or obtained directly from the American Type Culture Collection, Rockville, Md. (FIG. 1C, and remainder of studies). Rat IgG obtained from Sigma Co., USA, served as a control. Antibodies were administered into the tail vein (70% of mAb) and intraperitoneally (30% of mAb) at 10 mg/Kg separately or in combination on alternate days at the time points indicated (FIGS. 1–4). The rat IgG control antibody was also administered at 10 mg/Kg. Backbones from sacrificed mice were frozen in isopentane at −70° C. Transverse 10 μm sections made through the spinal cord of control and diseased mice, in each case made at the same levels of the cord, were mounted on poly L-lysine-coated slides, and stained with haematoxylin and eosin.

[2] = tested on: apoptotic cells in spinal cord of EAE mice; assay: In situ detection of apoptotic cells in the CNS by TUNEL assay; settings: spinal cord sections, compared to mice mock treated with PBS or rat IgG
Experimental: Cells undergoing apoptosis were identified using the in situ TUNEL assay. Five-μm thick serial sections of brain and spinal cord were prepared to detect apoptosis by TUNEL (i.e., terminal deoxynucleotidyl transferase-mediated deoxyuridine triphosphate-digoxigenin nick end labeling) staining using the In Situ Apoptosis Detection Kit from Boehringer Mannheim (Germany). Briefly, frozen sections were fixed in 4% paraformaldehyde, permeabilized in 0.1% Triton X-100, incubated with 20 μL TUNEL reagent for 60 minutes at 37° C., and then examined by fluorescence microscopy. Adjacent sections were counterstained with hematoxylin and mounted onto poly-L-lysine coated slides to allow the total number of nucleated cells to be counted. The percentage of apoptotic cells was assessed in ten randomly selected fields viewed at 40× magnification. The apoptotic index (AI) was calculated as follows: AI=number of apoptotic (TUNEL-positive) cells×100/total number of nucleated cells.

oligodendrocytes = assay: Oligodendrocyte loss by CNPase immunostaining of dorsal columns; settings: 31 for rat IgG and 26 for PBS treated control mice
Source text: (§1) Frozen sections from lumbar spinal cord (10 μm) were acetone-fixed and immunostained for oligodendrocyte content with an antibody against CNPase (Sigma; diluted 1:100); for axonal damage with an antibody against non-phosphorylated neurofilament-H (SM 1-32; Stemberger Monoclonals Incorporated, Lutherville, Md., USA; diluted 1:1000), and for GluR2 and NR1 content using mouse mAbs obtained from Zymed Laboratories Inc., Carlton, San Francisco, Calif. Antibody staining was visualized with an avidin:biotinylated enzyme complex (Vector Laboratories, Burlingame, Calif., USA). Sections were viewed under a light microscope, and cells stained with the anti-CNPase and SM 1-32 antibodies were counted.
To evaluate the effects of the different treatment regimes on the loss of oligodendrocytes, a key cellular target in demyelinating diseases of the CNS, oligodendrocytes were enumerated by immunohistochemical staining of spinal cord sections and the number of oligodendrocytes within the dorsal columns of […] transverse sections were counted (FIG. 5B), and reductions in oligodendrocyte numbers were calculated and expressed as % loss of oligodendrocytes per dorsal section (FIG. 5C). […]

GluR2 = GluR2 subunit expression in spinal cord; settings: spinal cord of EAE mice, immunohistochemistry and Western blot
Experimental: PBS-perfused spinal cords were homogenized in lysis buffer (50 mM Tris pH 7.4, 100 μM EDTA, 0.25 M sucrose, 1% sodium dodecyl sulfate [SDS], 1% Nonidet P-40 [NP40], 1 μg/mL leupeptin, 1 μg/mL pepstatin A, and 100 μM phenylmethylsulfonylfluoride) at 4° C. using a motor-driven homogenizer (Virtus, Gardiner, N.Y.). […] The membranes were washed thrice with TBS-T and incubated with horseradish peroxidase-conjugated anti-mouse IgG (Sigma) diluted 1:5000 in TBS-T. Immunoreactivity was detected by Enhanced Chemiluminescence (Amersham International plc. England) and autoradiography.

[3] = tested on: NMDA receptor subunit NR1; assay: NMDA receptor subunit NR1 expression in spinal cord; settings: spinal cord of EAE mice, immunohistochemistry and Western blot
Source text: as §1
PBS-perfused spinal cords were homogenized in lysis buffer (50 mM Tris pH 7.4, 100 μM EDTA, 0.25 M sucrose, 1% sodium dodecyl sulfate [SDS], 1% Nonidet P-40 [NP40], 1 μg/mL leupeptin, 1 μg/mL pepstatin A, and 100 μM phenylmethylsulfonylfluoride) at 4° C. using a motor-driven homogenizer (Virtus, Gardiner, N.Y.). […] Protein concentrations of the supernatants were determined as described (Peterson, 1983), and 100 μg of protein resolved on 10% polyacrylamide SDS-gels under reducing conditions and then electrophoretically transferred to Hybond C Extra nitrocellulose membranes (Amersham Life Science, England). […]

| Compound | effectiveness of prolonged treatment on disease severity [1] | effect on advanced EAE (clinical symptoms) [1] | effect on development of EAE (clinical symptoms) [1] | reductions in the numbers of apoptotic cells [2] [%] | % loss of oligodendrocytes per dorsal section (oligodendrocytes) [%] | GluR2 expression (GluR2) | NMDA receptor (NR1 subunit) expression [3] |
| --- | --- | --- | --- | --- | --- | --- | --- |
| NS(=O)(=O)c1cccc2c1c([N+](=O)[O-])cc1nc(O)c(O)nc12 [NBQX, 2,3-dihydroxy-6-nitro-7-sulfamoylbenzo(f)quinoxaline] | NBQX+GPE+anti-MAdCAM-1>NBQX+GPE>NBQX>GPE | only caused temporary remission | suppressed EAE, but to a greater extent than achieved with GPE | ~30 | 13 | downregulates the AMPA receptor | caused down-regulation of the NMDA receptor |
| Gly-Pro-Glu [GPE] | NBQX+GPE+anti-MAdCAM-1>NBQX+GPE>NBQX>GPE | only caused temporary remission | suppressed EAE, up to 27 days after suspension of treatment | ~30 | 14 | negligible effect | not effective |
